Test results reported in patent publication US6517839B1, “Methods for inducing interleukin-12 and a type1/Th1 T-cell response” (priority 1997, dated 2003).

Tested on: THP-1 cells
Assay: IL-12 p40 release from THP-1 cells, measured by ELISA of 20 h supernatants
Assay type: cell-based, human
Conditions: for IL-12 p40 release: Example 7, FIG. 10, THP-1 20 h

Row | Substance | IL-12 p40 release (monocyte Western blot) (Example 4, FIG. 7, solubilized gel regions of Rotofor fraction #4, average of four experiments) | IL-12 p40 release
1 | 38 kDa lipoprotein: M. tuberculosis 38 kDa lipoprotein antigen; migrates as 39 kDa band | some contribution | 
2 | recombinant 19 kDa expressed in E. coli: recombinant form of the M. tuberculosis 19 kDa antigen expressed in E. coli |  | failed to induce any IL-12 p40
3 | recombinant 19 kDa expressed in M. vaccae: recombinant form of the M. tuberculosis 19 kDa antigen expressed in a mycobacterial system, M. vaccae |  | stimulated IL-12 p40 release in an equivalent manner
